Counter-ions that a name gives are not always drawn. Like-named read-outs stand apart in the source and are kept apart here.
Assays:
[1] = at therapeutic doses
sensitized cebus monkeys [2] = conditions: for Number of Monkeys with Dyskinetic Reactions/Number Tested: observed eight hours; for duration of reactions / intensity of reactions: typical reactions
Description: The compound of Formula II, clozapine, thioridazine or haloperidol were each orally administered to sensitized cebus monkeys. They were then observed in their home cages continuously for eight hours and occurrences of dyskinetic reactions noted.

[3] = system: apomorphine-induced climbing; conditions: for Mean Climb Score: 13-14 min after apomorphine HCl 1.25 mg/kg s.c., vehicle 24
Method: (§1) A number of tests are recognized as showing antidopaminergic activity of a compound and/or as being predictive of antipsychotic activity in mammals. For these tests a compound of formula II in the form of a salt (for example, as described in Example 2) was used. All dosages in the tables are expressed as free base.
This test has been described by Ther and Schramm [Arch int. Pharmacodyn., 138: 302 (1962); Peuch, Simon and Boissier, Eur. J. Pharm., 50: 291 (1978)]. Mice that are administered an appropriate dose of apomorphine (a dopamine agonist) will climb the walls of a cage or other suitable structure and remain at or near the top for 20-30 minutes. Untreated mice on the other hand will occasionally climb up and then climb down. […] The antagonism of apomorphine-induced climbing in mice is therefore an indication of the potential dopamine blocking activity of the agent. Since dopamine blocking agents are typically antipsychotic agents, the test is considered to be evidence for potential antipsychotic activity of the agent. The vehicle itself [hydroxypropylmethylcellulose (HPMC) 0.5% w/v, polyoxyethylene (20) sorbitan monooleate (Tween 80) .1% w/v, and distilled water] or the vehicle with the test compound of the present invention was administered orally to twenty mice in graded doses. After 30 minutes, apomorphine HCl was administered subcutaneously at 1.25 mg/kg and the mice were placed in cages containing 28 horizontal rungs, upon which the mice could climb. Thirteen minutes later they were scored for climbing. The climbing score was the mean of the highest and lowest rungs on which the mouse climbed during a one-minute time period from 13 ° 14 minutes after apomorphine.

[4] = system: rat striatal homovanillic acid (HVA); conditions: rat striatum, HPLC
Description: as §1
(§2) Among the various pharmacological effects of antipsychotics, their action as dopamine antagonists in the brain has been extensively investigated. Enhancement of dopamine metabolism (dihydroxyphenylacetic acid and homovanillic acid (DOPAC and HVA)) by antipsychotic agents has been attributed to a blockade of dopamine receptors [A. Carlson and M. Lindquist, Acta. Pharmac. Tox., (1963) 20: 140]. The effects of a compound of the invention on DOPAC and HVA levels in the rat striatum were measured by HPLC using electrochemcial detection according to the method of Saller and Salama [J. Chromatography, (1984) 309: 287].

[5] = system: rat striatal dihydroxyphenylacetic acid (DOPAC); conditions: rat striatum, HPLC
Description: as §1, §2

[6] = system: amphetamine-induced hyperactivity; conditions: for Activity Score (0-2 Hr) (Mean Number of Crossings of Center Line of Alley): vehicle 148
Method: A number of tests are recognized as showing antidopaminergic activity of a compound and/or as being predictive of antipsychotic activity in mammals. For these tests a compound of formula II in the form of a salt (for example, as described in Example 2) was used. All dosages in the tables are expressed as free base. This test has been described by Swerdlow and Koob [Pharmacol. Biochem. and Behav., 23: 303 (1985)]. Rats that are administered amphetamine at a moderate dose become hyperactivity. The hyperactivity can last for several hours, and can be measured in various ways, for example, by counting the number of times the rat walks from one end of a long alley to the other end. […] The hyperactivity of […]-treated rats can be antagonized (prevented) by pretreatment with dopamine-blocking agents. […] The compound of the present invention as the HCl salt or the vehicle (vehicle is defined in Example 5) were administered orally to 20 rats and […] injected intraperitoneally. Activity (walking back and forth in a long alley) was recorded for two hours.

squirrel monkeys = conditions: for Number of Monkeys Scoring 75% (Or Less) Avoidance Responses/Number Tested: vehicle 0/20
Description: as §1
The conditioned avoidance test has been described by Herz, A., Int. Rev. Neurobiol., (1960) 2: 229-277. In this test, a warning stimulus is presented for five seconds. The monkeys are trained to press a lever to turn off the warning stimulus thereby avoiding the delivery of electric shocks at 1/sec for 10 seconds that would begin at the end of the warning stimulus. If there is no response during the warning stimulus (no avoidance response) and the shocks begin, a response during the shocks stops the shocks. Trials of this type are repeated every minute for six hours. […] A compound of the present invention Formula II (HCl salt) was administered orally and the conditioned avoidance test was administered. The vehicle used was that defined in Example 5.

sensitized cebus monkeys [7] = conditions: background statement; cited from earlier work
schizophrenic patients = conditions: background statement; cited from earlier work
[8] = 20 mg/kg p.o., one of two reacting monkeys

OCCOCCN1CCN(C2=Nc3ccccc3Sc3ccccc32)CC1 [Formula II, 11-[4-[2-(2-Hydroxyethoxy)ethyl]-1-piperazinyl]-dibenzo[b,f][1,4]thiazepine]
overt toxicity [1]: No overt toxicity

O=C(CCCN1CCC(O)(c2ccc(Cl)cc2)CC1)c1ccc(F)cc1 [Haloperidol, reference compound]
Number of Monkeys with Dyskinetic Reactions/Number Tested (sensitized cebus monkeys [2]; 1.0 mg/kg p.o.): 13/13
duration of reactions (sensitized cebus monkeys [2]; oral): several
intensity of reactions (sensitized cebus monkeys [2]; oral): moderate or high intensity

OCCOCCN1CCN(C2=Nc3ccccc3Sc3ccccc32)CC1 [Formula II (HCl salt), 11-[4-[2-(2-Hydroxyethoxy)ethyl]-1-piperaziny]dibenzo [b,f][1,4]thiazepine, hydrochloride salt]
Mean Climb Score ([3]; 10 mg/kg i.p. (head; text: orally)): 24
Mean Climb Score ([3]; 20 mg/kg i.p. (head; text: orally)): 15
Mean Climb Score ([3]; 40 mg/kg i.p. (head; text: orally)): 2
Mean Climb Score ([3]; 80 mg/kg i.p. (head; text: orally)): 0
antagonism of apomorphine-induced climbing ([3]; result in words): antagonized the climbing
Number of Monkeys with Dyskinetic Reactions/Number Tested (sensitized cebus monkeys [2]; 2.5 mg/kg p.o.): 0/13
Number of Monkeys with Dyskinetic Reactions/Number Tested (sensitized cebus monkeys [2]; 5 mg/kg p.o.): 1/13
duration of reaction (sensitized cebus monkeys [2]; 10 mg/kg): about twenty
intensity of reaction (sensitized cebus monkeys [2]; 10 mg/kg): weak
Number of Monkeys with Dyskinetic Reactions/Number Tested (sensitized cebus monkeys [2]; 10 mg/kg p.o.): 1/13
Number of Monkeys with Dyskinetic Reactions/Number Tested (sensitized cebus monkeys [2]; 20 mg/kg p.o., hydrochloride salt): 2/13
Number of Monkeys with Dyskinetic Reactions/Number Tested (sensitized cebus monkeys [2]; 20 mg/kg p.o., listed as compound of the present invention, hydrochloride salt): two of thirteen
duration of reaction (sensitized cebus monkeys [2]; [8]): about five
intensity of reaction (sensitized cebus monkeys [2]; [8]): extremely weak
Number of Monkeys with Dyskinetic Reactions/Number Tested (sensitized cebus monkeys [2]; 40 mg/kg p.o.): 0/4
dyskinetic and dystonic reactions (sensitized cebus monkeys [2]; compared to haloperidol or thioridazine, oral): markedly fewer dyskinetic and dystonic reactions
intensity of the reactions (sensitized cebus monkeys [2]; compared to thioridazine or haloperidol, oral): less than that of thioridazine or haloperidol
% Control HVA ([4]; 10 mg/kg i.p.): 140 % Control
% Control HVA ([4]; 20 mg/kg i.p.): 210 % Control
% Control HVA ([4]; 40 mg/kg i.p.): 260 % Control
% Control DOPAC ([5]; 10 mg/kg i.p.): 145 % Control
% Control DOPAC ([5]; 20 mg/kg i.p.): 220 % Control
% Control DOPAC ([5]; 40 mg/kg i.p.): 300 % Control
Activity Score (0-2 Hr) (Mean Number of Crossings of Center Line of Alley) ([6]; 10 mg/kg p.o., p < .05): 118.3 Crossings
Activity Score (0-2 Hr) (Mean Number of Crossings of Center Line of Alley) ([6]; 20 mg/kg p.o., p < .0005): 92.4 Crossings
Activity Score (0-2 Hr) (Mean Number of Crossings of Center Line of Alley) ([6]; 40 mg/kg p.o., p < .0005): 64.3 Crossings
Activity Score (0-2 Hr) (Mean Number of Crossings of Center Line of Alley) ([6]; 80 mg/kg p.o., p < .0005): 39.8 Crossings
antagonism of amphetamine-induced hyperactivity ([6]; result in words): antagonized the hyperactivity
Number of Monkeys Scoring 75% (Or Less) Avoidance Responses/Number Tested (squirrel monkeys; 5 mg/kg p.o.): 0/4
Number of Monkeys Scoring 75% (Or Less) Avoidance Responses/Number Tested (squirrel monkeys; 10 mg/kg p.o.): 15/20
Number of Monkeys Scoring 75% (Or Less) Avoidance Responses/Number Tested (squirrel monkeys; 20 mg/kg p.o.): 19/20
reduction of avoidance responses (squirrel monkeys; result in words, oral): marked reduction of avoidance responses

CSc1ccc2c(c1)N(CCC1CCCCN1C)c1ccccc1S2 (stereo not drawn) [Thioridazine, reference compound]
Number of Monkeys with Dyskinetic Reactions/Number Tested (sensitized cebus monkeys [2]; 10 mg/kg p.o.): 11/13
duration of reactions (sensitized cebus monkeys [2]; oral): several
intensity of reactions (sensitized cebus monkeys [2]; oral): moderate or high intensity

CN1CCN(C2=Nc3cc(Cl)ccc3Nc3ccccc32)CC1 [Clozapine, reference compound]
Number of Monkeys with Dyskinetic Reactions/Number Tested (sensitized cebus monkeys [2]; 10 mg/kg p.o.): 0/1
Number of Monkeys with Dyskinetic Reactions/Number Tested (sensitized cebus monkeys [2]; 20 mg/kg p.o.): 0/13
Number of Monkeys with Dyskinetic Reactions/Number Tested (sensitized cebus monkeys [2]; 40 mg/kg p.o.): 0/11
Number of Monkeys with Dyskinetic Reactions/Number Tested (sensitized cebus monkeys [2]; 60 mg/kg p.o.): 0/5
dyskinetic reaction in sensitized cebus monkeys (sensitized cebus monkeys [7]): does not produce a dyskinetic reaction
tardive dyskinesia reported (schizophrenic patients): no tardive dyskinesia reported
